US8470886B2, “Topical ibuprofen formulations” (NUVO Research Inc., priority 2009, dated 2013)
Structures can show the parent of a compound that is named as a salt.

Tests used:
[1] = pH of the formulation; assay type: physicochemical; conditions: Table 20; single ingredient in water at its Ib949 wt %
[2] = cited from earlier work
[3] = Skin permeation of ibuprofen through porcine skin, Franz diffusion cells (finite dosing); assay type: in vitro ADME; conditions: bar graphs FIG. 1-13
Experimental: “Enhancement ratio” (“ER”) as used herein is the ratio of a test result (e.g., ug/cm^2 accumulated dose of product) from a formulation comprising ibuprofen to the corresponding test result from a control composition comprising ibuprofen at the same concentration in the formulation.
“Ratio”, as it pertains to comparative flux values described herein, are calculated based on the cumulative amount of active (e.g. ibuprofen) delivered through the skin over a period of 4-60 hrs, preferably 24 hrs.
The permeation of ibuprofen through porcine skin from each of the present formulations was measured using Franz diffusion cells (“FDC”s). Porcine skin pieces are obtained from Lampire Biological Laboratories, Inc., Pipersville, Pa. Porcine skins were collected immediately following animal sacrifice, and the hairs were trimmed with clippers. Larger pieces of excess fat were removed with a filet knife. The skin was then trimmed to a set thickness of some 2 mm, cut into individual pieces, wrapped in aluminum foil, frozen, shipped, and stored at −78° C.
Prior to use, the skin pieces were allowed to thaw, in air, to room temperature. […]
Samples were drawn from the receptor wells at various times, as provided in the examples that follow. […] The concentrations of ibuprofen in the samples were measured using HPLC analysis using a C18 column and acetonitrile and water as the mobile phase. […]

pH-water and ingredients [1]	SMILES	also measured
6.97	CC(O)CO (centres unmarked) [PG]	
5.72	COC(=O)c1ccc(O)cc1 [MP]	
	CC(C)Cc1ccc(C(C)C(=O)O)cc1 (racemic) [Ibuprofen, 2-(4-isobutylphenyl)propanoic acid]	Solubility in polar organic solvents ([2]; ethanol and acetone): readily soluble; Solubility in water ([2]; water): < 100 µg/mL
3.72	CCOC(=O)CC(O)(CC(=O)OCC)C(=O)OCC [Triethyl Citrate]	
7.97	CCCCCCCCCCCCOS(=O)(=O)[O-].[Na+] [Na Lauryl Sulfate]	
4.32	CCOCCOCCO [Transcutol]	
2.4	CC(O)C(=O)O (centres unmarked) [Lactic Acid]	
7.31	CCO [Ethanol]	
	CC(C)Cc1ccc([C@H](C)C(=O)O)cc1 [(S) form, (S+)-ibuprofen]	Flux / permeation of ibuprofen, result in words [3]: no significant difference in flux
6.13	CCCOC(=O)c1ccc(O)cc1 [PP]	
